Where a SMILES comes first, the peptide text is derived from it. Where no end group is shown, it is not given here. [ ]: non-standard residue; d: D form. Glx = not defined here; Sar = CNCC(=O)O
Tests used:
[1] = test system: Th-1+ T lymphocytes (T-precursor cells of bone marrow); test: chicken induction assay, Th-1+ T cells; assay type: cell-based
Excerpt: (§1) To determine the activity and characteristics of the tripeptide amide produced in Example I, the following chicken induction assay was employed. This assay is described in greater detail in Brand, et al., Science, 193, 319-321 (July 23, 1976) and references contained therein.
(§2) Bone marrow from newly-hatched chickens was selected as a source of inducible cells because it lacks an appreciable number of Bu-1^+ or Th-1^+ cells. Pooled cells from femur and tibiotarsus of five newly-hatched chicks of strain SC (Hy-Line) were fractionated by ultracentrifugation on a five-layer discontinuous bovine serum albumin (BSA) gradient. Cells from the two lighter layers were combined, washed, and suspended for incubation at a concentration of 5×10^6 cells per milliliter with the appropriate concentration of test polypeptide in RPMI 1630 medium supplemented with 15 mM hepes, 5 percent γ-globulin-free fetal calf serum, deoxyribonuclease (14 to 18 unit/ml), heparin (5 unit/ml), penicillin (100 unit/ml), and streptomycin (100 μg/ml). Controls were incubated with BSA (1 μg/ml) or medium alone. After incubation, the cells were tested in the cytotoxicity assay using chicken Cl and guinea pig C2 to C9 complement fractions as described in the reference article. The proportion of Bu-1^+ or Th-1^+ cells in each layer was calculated as a cytotoxicity index, 100 (a-b)/a, where a and b are the percentages of viable cells in the complement control and test preparation, respectively. The percentage of cells induced was obtained by subtracting the mean values in the control incubations without inducing agents (usually 1 to 3 percent) from those of the test inductions.
(§3) This high dose of ubiquitin inactivates the ubiquitin receptors and thus prevents the induction of cells by any agent which acts through these receptors.

[2] = test system: Bu-1+ B lymphocytes (B-precursor cells of bone marrow); test: chicken induction assay, Bu-1+ B cells; assay type: cell-based
Excerpt: as §1, §2, §3

[3] = test system: immunocyte-precursor cells; test: in vitro induction of differentiation of immunocyte-precursor cells (general statement); assay type: cell-based
Excerpt: Stated another way, the subject polypeptides have the capability of inducing differentiation of both Th-1^+ T-lymphocytes and Bu-1^+ B-lymphocytes.
The carrier may be any of the well-known carriers for this purpose including normal saline solutions, preferably with a protein diluent such as bovine serum albumin to prevent adsorptive losses to glassware at these low concentrations. The polypeptides of this invention are generally active when parenterally administered at a range of above about 1 μg/kg of body weight. For the treatment of DiGeorge Syndrome, the polypeptides may be parenterally administered at a rate of about 1 to about 100 μg/kg of body weight. Generally, the same range of dosage amounts may be used in treatment of the other conditions or diseases mentioned.

T cells = settings: E rosette assay; literature; cited from earlier work
T cells and B cells = settings: literature / copending application; cited from earlier work
[4] = bone marrow cells of newly-hatched chickens, cytotoxicity assay

With `CN(CC(=O)N[C@@H](CCC(N)=O)C(N)=O)C(=O)[C@@H](N)CCCCN` [amidated tripeptide of Example I, H--LYS--SAR--GLN--NH2] (H-Lys-[Sar]-Gln-NH2) the “concentration inducing the differentiation of Th-1+ T lymphocytes” value [1, 4] was 100 pg/mL, the “effect of added ubiquitin on induction of Th-1+ T cells by the test polypeptide” value ([1]; ubiquitin 100 μg/ml added) was “inhibition of induction” and the “concentration inducing the differentiation of Bu-1+ B lymphocytes” value [2, 4] was 100 pg/mL. The “effect of added ubiquitin on induction of Bu-1+ B cells by the test polypeptide” value ([2]; ubiquitin 100 μg/ml added) was “inhibition of induction” and the “concentration at which active” value [3] was “about 100 pg/ml”.
For “GLX--ALA--LYS--SER--GLN--GLY--GLY--SER--ASN (Glx-AKSQGGSN; reading uncertain; also: N-terminal Glx: Gln or pyroglutamic acid, printed as GLX--ALA--LYS--SER--GLN--GLY--GLY--SER--ASN) [FTS, nonapeptide isolated from porcine serum; GLX is glutamine or pyroglutamic acid]”, the “differentiation of T cells versus B cells” value (T cells) is given as “selectively differentiated T cells (and not B cells)” and the “differentiation of T cells and B cells” value (T cells and B cells) is given as “differentiated both T cells and B cells”.
For “H--ALA--LYS--SER--GLN--OH (H-AKSQ-OH) [tetrapeptide of copending application Ser. No. 960,550]”, the “differentiation of T cells and B cells” value (T cells and B cells) is given as “same activity as FTS”.
With `C[C@@H](NC(=O)[C@@H](N)CCCCN)C(=O)N[C@@H](CCC(N)=O)C(N)=O` [H--LYS--D--ALA--GLN--NH2] (H-Lys-[dA]-Gln-NH2) the “biological activity: induction of differentiation of Th-1+ T cells” value ([1]; result in words) was “Biological activity similar to that of ubiquitin was observed” and the “biological activity: induction of differentiation of Bu-1+ B cells” value ([2]; result in words) was “Biological activity similar to that of ubiquitin was observed”.
In the case of H--SAR--LYS--SAR--GLN--NH2, the “differentiation of T cells and B cells” value (T cells and B cells) is given as “same activity as FTS”.
